Source: US8772463B2, “Fluorescent dye-labeled glucose bioprobe, synthesis method and usage thereof” (SNU R&DB Foundation, priority 2007, dated 2014)
“Also recorded” adds a separate entry of the source.

Key:
[1] = normal media containing 10 mM D-glucose; cited from earlier work
[2] = tested on: A549 cells; assay: Probe uptake by A549 cells, inverted fluorescent microscope (α/β anomers, alanine, 2-NBDG comparison); format: cell-based, human
Method: (§1) 1×10^4 cells were cultured on a Lab-Tek glass chamber slide (Nalge Nunc International, Naperville, Ind., USA) in 35 mm cell culture dish. After 24 h, the cells were treated for each experimental purpose. Then, the medium was replaced with RPMI 1640 medium containing 12.5 μM of Cy3-Glc-α. The cells were exposed to Cy3-Glc-α for 40 min, then washed with PBS 3 times. Finally, the glass chamber slide was taken from culture dish and loaded on the fluorescence microscope (Axiovert 200, Carl Zeiss, Germany). Fluorescence images of 35-50 cells were taken by CCD camera (Axiocam MRm, Germany) and fluorescence intensity of each cell was measured by Axiovision (program for data analysis). An area as ROIs (regions of interest) which contains a cell in phase-contrast image was drawn using Axiovision. Axiovision analyzed CCD camera images and provided the digitized mean of fluorescence intensity in the ROIs that the present inventors had established. The present inventors subtracted the background intensity from the fluorescence intensity to get the fluorescence intensity value that a cell contained. With the method described above, the present inventors digitized fluorescence intensity and performed various experiments.
To confirm the above hypothesis, real-time uptake of Cy3-Glc-α was measured, and the results were compared to those of Cy3-Glc-β by live imaging of A549 cells by using inverted fluorescent microscope. […] This led the present inventors to the conclusion that the stereochemistry at the C-1 anomeric position definitely influences the efficiency of mimicking glucose, and this might be due to the binding orientation of D-glucose in GLUTs [P. W. Hruz, M. M. Mueckler, Mole. Memb. Biol. 2001, 18, 183-193].
The cellular uptake of 2-NBDG was not detected under identical experimental conditions used for Cy3-Glc-α. […] To achieve the fluorescence intensity with 2-NBDG to 80% that of Cy3-Glc-α, a 10 fold increase in 2-NBDG concentration and a 20 fold increase in the lens exposure time in D-glucose-depleted medium were needed.
In addition, the cellular uptake of 2-NBDG in normal media (containing 10 mM D-glucose) was extremely low (>60% uptake reduction in normal media) and was hardly detected using fluorescent based imaging methods [R. G. O'Neil, L. Wu, N. Mullani, Mol. Imaging Biol. 2005, 7, 388-392]. 2-NBDG was detectable only in glucose-depleted media, and this means a critical limitation of bioapplication of 2-NBDG in the biologically significant environments. In comparison with 2-NBDG, the reduction of Cy3-Glc-α uptake in glucose-containing media was only 5% compared to that in glucose-depleted media (FIG. 18). Therefore, it was confirmed that Cy3-Glc-α was capable of being applied to a bioassay system regardless of glucose starvation.

[3] = tested on: NIH/3T3 cells; assay: FACS-based flow cytometric analysis of probe uptake with/without 11 mM D-glucose; format: cell-based, murine; conditions: for reduction in cellular uptake due to 11 mM D-glucose: glucose-depleted condition normalized to 100
Method: FACS (Fluorescence Activated Cell Sorting)-based flow cytometric analysis was used to compare cellular uptake efficiency in NIH/3T3 cells among the glucose probe [2-(N-Cy3-piperazinoethyl)]-α-D-glucose (GB2-Cy3), synthesized in Example 2, the conventional fluorescent glucose probe 2-NBDG and the glucose probe Cy3-Glc-α, synthesized in Example 1.
NIH/3T3 cells were cultured on 10 cm cell culture dishes and transferred in a volume of 3×10^5 cells into each FACS tube (5 mL, BD). They were washed once with cold PBS before incubation at 37° C. for 30 min in 11 mM D-glucose-containing PBS or glucose-free PBS in the presence of the bioprobe [GB2-Cy3 (5 μM), 2-NBDG (5 μM or 50 μM) or Cy3-Glc-α (5 μM)]. Cells that were incubated without the bioprobes were used as a negative control. After being washed with cold PBS, 1×10^4 NIH/3T3 cells were analyzed on FACSCalibur™ (FACS-based flow cytometer). GBs-Cy3 was detected by FL2 channels. Raw data of 1×10^4 cells are shown in histograms, with the mean values thereof given in the graph of FIG. 21.

[4] = tested on: A549 cells; assay: Screening of anticancer agents by Cy3-Glc-α uptake; format: cell-based, human
Method: as §1
The application was performed under the postulation that the depression of perturbed cellular metabolism in cancer cells was caused by anticancer agents, which was closely related to the reduction of glucose uptake.
The present inventors intended to monitor this phenomenon by the fluorescent bioprobe according to the present invention, that is, Cy3-Glc-α. As a proof-of-principle experiment, after A549 cancer cells were treated with taxol (9.8 μM), an anticancer agent, and the uptake of Cy3-Glc-αwas measured at 3, 6, 12, and 24 h after the treatment.
(3) In addition, after the taxol concentration was changed in the range of 490 nM to 49 nM, the uptake of Cy3-Glc-α by A549 cells was measured after 8 hr and 12 hr, and after another anticancer agent, i.e., combretastatin, (2 μM) was used to treat A549 cells, the uptake of Cy3-Glc-α by A549 cells was measured after 8 hr and 12 hr.

[5] = tested on: C2C12 muscle cells; assay: Glucose competition and insulin response monitored by GB2-Cy3, flow cytometry; format: cell-based, mouse; conditions: D-glucose competition and insulin treatment
Method: For the differentiation to mature muscle cells, C2C12 mouse myoblast cells were maintained in DMEM supplemented with 10% FBS and 1% antibiotic-antimycotic solution. When the cells reached to 100% confluency, the medium was changed to DMEM containing 2% horse serum in every two days. Experiments for flow cytometric analysis and flow cytometric analysis were carried out with cells after 3 to 5-days differentiation.
The resulting cells were incubated with 5 μM GB2-Cy3 for 15 min in the absence/presence of 11 mM D-glucose. They were washed with cold PBS, collected and analyzed using FACSCalibur™. After detection of GB2-Cy3 by FL2 channels, mean fluorescent intensity values were calculated.

[6] = tested on: NIH/3T3 cells; assay: Fluorescence imaging analysis of competitive GB2-Cy3 uptake; format: cell-based, murine; conditions: GB2-Cy3 10 μM; 0, 11 or 55 mM D-glucose
Method: Also, NIH/3T3, A549, C2C12 and 3T3/L1 cells, each having a population of 4×10^4 cells, were cultured on 35 mm cell culture dishes (BD Falcon™ Cell Culture Dish; BD Bioscience, CA, USA). Two days later, the cell culture medium was replaced with a glucose-depleted medium (DMEM, glucose free, GIBCO) supplemented with 0 mM, 11 mM or 55 mM D-glucose and 10 μM GB2-Cy3. After incubation at 37° C. for 30 min, the cells on the cover slips in the 35-mm cell culture dishes were washed twice with cold PBS and the cover slips were mounted on the caster of a fluorescence microscope (Olympus IX71). During observation under the fluorescence microscope, the cells were maintained at 37° C. in the chamber. Fluorescence images of 35-50 cells were taken by CCD camera (Axiocam MRm, Germany) and each cell was measured for fluorescence intensity using the image data analysis program Image-Pro® Plus (MediaCybernetics, USA). […] Image-Pro® Plus analyzed CCD camera images to produce the digitized mean of fluorescence intensity within the ROIs that the present inventors had established. The background intensity was subtracted from the detected fluorescence intensity to give the fluorescence intensity value that a cell contained. In this manner, the fluorescence intensity was digitized for performing various experiments. […]

[7] = tested on: 3T3/L1 pre-adipocytes; assay: GB2-Cy3 uptake during adipocyte differentiation, FACS-based flow cytometry; format: cell-based, mouse; conditions: day 0 to day 8 of differentiation
Method: (§2) For the differentiation of preadipocyte to mature adipocytes, 3T3/L1 fibroblast cells were cultured using the above mentioned culture protocol. […] When the cells start to generate lipid drops as an indication of the differentiation toward mature adipocytes, insulin was removed from the culture media. Mature adipocytes can be achieved by 8- to 12-day differentiation, and used for flow cytometric analysis and fluorescent bioimaging microscopy.
The changes in cellular glucose uptake from 3T3/L1 pre-adipocytes (day 0 of differentiation) toward more than 50% differentiation of mature adipocytes (day 8 of differentiation) were measured by FACS-based flow cytometric analysis using GB2-Cy3. The differentiation procedure was followed as described above. 1×10^4 cells were analyzed at FL2 channel of the flow cytometry. […] As mentioned above, the glucose analogue GB2-Cy3 of the present invention is useful for monitoring the differentiation of 3T3/L1 cells into mature adipocytes.

[8] = tested on: A549 cells; assay: Fluorescence imaging analysis of competitive probe uptake; format: cell-based, human
Method: Also, NIH/3T3, A549, C2C12 and 3T3/L1 cells, each having a population of 4×10^4 cells, were cultured on 35 mm cell culture dishes (BD Falcon™ Cell Culture Dish; BD Bioscience, CA, USA). Two days later, the cell culture medium was replaced with a glucose-depleted medium (DMEM, glucose free, GIBCO) supplemented with 0 mM, 11 mM or 55 mM D-glucose and 10 μM GB2-Cy3. After incubation at 37° C. for 30 min, the cells on the cover slips in the 35-mm cell culture dishes were washed twice with cold PBS and the cover slips were mounted on the caster of a fluorescence microscope (Olympus IX71). During observation under the fluorescence microscope, the cells were maintained at 37° C. in the chamber. Fluorescence images of 35-50 cells were taken by CCD camera (Axiocam MRm, Germany) and each cell was measured for fluorescence intensity using the image data analysis program Image-Pro® Plus (MediaCybernetics, USA). As ROIs (regions of interest), areas which encompassed cells within phase-contrast images were drawn using Image-Pro® Plus. Image-Pro® Plus analyzed CCD camera images to produce the digitized mean of fluorescence intensity within the ROIs that the present inventors had established. The background intensity was subtracted from the detected fluorescence intensity to give the fluorescence intensity value that a cell contained. In this manner, the fluorescence intensity was digitized for performing various experiments.
NIH/3T3 and A549 cells were cultured on microscope cover glasses in 35 mm cell culture dishes and subjected to fluorescence imaging analysis according to the protocol.

[9] = tested on: C2C12 muscle cells; assay: Cellular glucose uptake under insulin, AICAR, dexamethasone monitored by GB2-Cy3; format: cell-based, mouse; conditions: insulin 170 nM, AICAR 1 mM (1 hr) or dexamethasone 1 μM (24 hrs); GB2-Cy3 5 μM
[10] = tested on: 3T3/L1 adipocytes; assay: as above; format: cell-based, mouse; conditions: insulin 170 nM, AICAR 1 mM (1 hr) or dexamethasone 1 μM (24 hrs); GB2-Cy3 10 μM
Method: as §2
Also, C2C12 cells and 3T3/L1 cells, each having a population of 6×10^4 cells, were cultured and differentiated on respective microscope cover glasses [Marlenfeld GmbH&Co., KG (Germany)] in 35 mm cell culture dishes. After removal of the differentiation media, FBS-free DMEM media containing 5.5 mM glucose were added to maintained a serum-free condition for 4 hrs. […] In this regard, an FBS-free DMEM medium containing 5.5 mM glucose or a DMEM medium free of both FBS and glucose was used. Cells were incubated at 37° C. for 30 min after which the glass chamber slides were withdrawn from the culture dishes and loaded on a chamber. […] Fluorescence images were taken every seven seconds, digitized and saved on a computer until analysis.
3T3/L1 preadipocyte cells and C2C12 […] cells were cultured in 24-well plates. […] 2×10^5 (3T3/L1) or 1×10^5 (C2C12) cells were analyzed using FACSCalibur™ and a confocal laser scanning microscope.

## O=[N+]([O-])c1ccc(NC2C(O)OC(CO)C(O)C2O)c2nonc12 [2-NBDG, 2-[N-(7-nitrobenz-2-oxa-1,3-diazol-4-yl)amino]-2-deoxy-D-glucose]
[1]
  uptake reduction in normal media: > 60%
[2]; 12.5 μM, 500 ms lens exposure
  detection of cellular uptake under conditions identical to Cy3-Glc-α: not detected
[2]; 125 μM, 500 ms CCD lens exposure
  fluorescence detection at 125 μM: little detected; also recorded: the fluorescence was not detected
[2]; 10 fold 2-NBDG concentration, 20 fold lens exposure time, D-glucose-depleted medium
  fluorescence intensity of 2-NBDG relative to that of Cy3-Glc-α: 80%
[3]; probe 5 μM, 11 mM D-glucose
  competition with D-glucose for cellular uptake: did not compete with D-glucose for cellular uptake
[3]; probe 50 μM
  reduction in cellular uptake due to 11 mM D-glucose: 30%

## COc1ccc(C[C@@H](O)c2cc(OC)c(OC)c(OC)c2)cc1O [Combretastatin]
[4]; agent 2 μM, 6 h
  uptake of Cy3-Glc-α by A549 cells: 57.4%
[4]; agent 2 μM, 12 h
  uptake of Cy3-Glc-α by A549 cells: 45.0%

## C[N+]1=C(/C=C/C=C2/N(CCCCC(=O)N3CCN(CCOC4OC(CO)C(O)C(O)C4O)CC3)c3ccccc3C2(C)C)C(C)(C)c2ccccc21 [GB2-Cy3, [2-(N-Cy3-piperazinoethyl)]-α-D-glucose]
[5]
  uptake route of GB2-Cy3: GLUT-specific uptake
[6]
  cellular uptake versus D-glucose concentration: reduced in a D-glucose dose-dependent manner
[7]
  fluorescent intensity (FL2) as differentiation progressed: increase in fluorescence intensity with the advance of differentiation; also recorded: the fluorescent intensity detected by FL2 channel was increased
[3]; probe 5 μM
  reduction in cellular uptake due to 11 mM D-glucose: about 60%
[8]; GB2-Cy3 10 μM
  cellular uptake in A549 cells compared with NIH/3T3 cells: observed to increase in A549 lung carcinoma cells
[8]; GB2-Cy3 10 μM, 0, 11 or 55 mM D-glucose
  cellular uptake versus D-glucose concentration: reduced in a D-glucose dose-dependent manner
[8]; probe 12.5 μM
  cellular uptake versus D-glucose concentration: decreased in the cellular uptake of the glucose analogues in D-glucose dose-dependent manners
  change in the fluorescent intensity of ROIs when D-glucose changed from 10 mM to 55 mM: approximately 27%

## CC(=O)O[C@H]1C(=O)[C@@]2(C)[C@H]([C@H](OC(=O)c3ccccc3)[C@]3(O)C[C@H](OC(=O)[C@H](O)[C@@H](NC(=O)c4ccccc4)c4ccccc4)C(C)=C1C3(C)C)[C@]1(OC(C)=O)CO[C@@H]1C[C@@H]2O [Taxol]
[4]; agent 49 nM, 6 h
  uptake of Cy3-Glc-α by A549 cells: 96.5%
[4]; agent 49 nM, 12 h
  uptake of Cy3-Glc-α by A549 cells: 86.9%
[4]; agent 490 nM, 6 h
  uptake of Cy3-Glc-α by A549 cells: 88.4%
[4]; agent 490 nM, 12 h
  uptake of Cy3-Glc-α by A549 cells: 61.8%
[4]; agent 9.8 μM, 6 h
  uptake of Cy3-Glc-α by A549 cells: 54.8%
[4]; agent 9.8 μM, 12 h
  uptake of Cy3-Glc-α by A549 cells: 50.2%
[4]; taxol 9.8 μM, 3, 6, 12, 24 h
  cellular uptake of Cy3-Glc-α versus incubation time with agent: reduced as the incubation time increased

## insulin: Insulin purchased from SIGMA; stimulates GLUT4 translocation and glucose uptake
[9]
  effect on cellular uptake of glucose monitored by GB2-Cy3: enhanced cellular uptake of glucose
[10]
  effect on cellular uptake of glucose monitored by GB2-Cy3: enhanced cellular uptake of glucose
